Measured values: patent US7745476B2, “1,3,5-trisubstituted 4,5-dihydro-1H-pyrazole derivatives having CB1-antagonistic activity” (Solvay Pharmaceuticals B.V., priority 2004, dated 2010)

Tests used:
human CB1 receptor = human CB1 receptor (Homo sapiens, UniProt P21554); experiment: In vitro cannabinoid-CB1 receptor antagonism (WIN 55,212-2-induced [3H]-arachidonic acid release in CHO cells); type: cell-based; conditions: 10^−6M
Procedure: In vitro CB1 receptor antagonism can be assessed with the human CB1 receptor cloned in Chinese hamster ovary (CHO) cells. CHO cells are grown in a Dulbecco's Modified Eagle's medium (DMEM) culture medium, supplemented with 10% heat-inactivated fetal calf serum. Medium is aspirated and replaced by DMEM, without fetal calf serum, but containing [^3H]-arachidonic acid and incubated overnight in a cell culture stove (5% CO2/95% air; 37° C.; water-saturated atmosphere). During this period [^3H]-arachidonic acid is incorporated in membrane phospholipids. On the test day, medium is aspirated and cells are washed three times using 0.5 ml DMEM, containing 0.2% bovine serum albumin (BSA). Stimulation of the CB1 receptor by WIN 55,212-2 leads to activation of PLA2 followed by release of [^3H]-arachidonic acid into the medium. This WIN 55,212-2-induced release is concentration-dependently antagonized by CB1 receptor antagonists.

[1] = biological target: human cannabinoid CB1 receptor (Homo sapiens, UniProt P21554); experiment: In vitro affinity for cannabinoid-CB1 receptors ([3H]CP-55,940 radioligand binding, CHO cell membranes); conditions: read-out: In vitro affinity pKi value (converted)
Chain of human cannabinoid CB1 receptor (P21554 whole entry): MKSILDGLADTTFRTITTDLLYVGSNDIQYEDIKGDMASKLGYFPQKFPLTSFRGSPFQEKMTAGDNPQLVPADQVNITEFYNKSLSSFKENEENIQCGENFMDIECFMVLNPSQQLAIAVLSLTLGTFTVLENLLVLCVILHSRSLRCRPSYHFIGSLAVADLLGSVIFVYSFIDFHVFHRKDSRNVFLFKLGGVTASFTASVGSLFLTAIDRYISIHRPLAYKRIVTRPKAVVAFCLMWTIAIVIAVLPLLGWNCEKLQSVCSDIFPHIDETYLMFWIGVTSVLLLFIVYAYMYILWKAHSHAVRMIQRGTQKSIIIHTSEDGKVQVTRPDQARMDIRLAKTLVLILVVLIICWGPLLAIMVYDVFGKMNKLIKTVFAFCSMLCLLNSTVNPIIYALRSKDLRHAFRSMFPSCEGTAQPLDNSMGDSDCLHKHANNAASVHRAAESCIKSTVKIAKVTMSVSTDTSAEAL
Procedure: The affinity of the compounds of the invention for cannabinoid CB1 receptors can be determined using membrane preparations of Chinese hamster ovary (CHO) cells in which the human cannabinoid CB1 receptor is stably transfected in conjunction with [^3H]CP-55,940 as radioligand. After incubation of a freshly prepared cell membrane preparation with the [^3H]-ligand, with or without addition of compounds of the invention, separation of bound and free ligand is performed by filtration over glassfiber filters. Radioactivity on the filter is measured by liquid scintillation counting.

Chain of human CB1 receptor (P21554 whole entry): as above

SMILES | inhibition at 1 µM (human CB1 receptor) [%] | Ki [1] [nM] | melting point [°C]
O=C(NN1CCCCC1)C1=NN(c2ccc(Cl)cc2Cl)C(c2ccccc2)C1 (stereo not shown) [Compound 3, N-(Piperidin-1-yl)-1-(2,4-dichlorophenyl)-5-phenyl-4,5-dihydro-(1H)-pyrazole-3-carboxamide] | 98 | 25.1 | 163 to 165
O=C(NC1CCCCC1)C1=NN(c2ccc(Cl)cc2Cl)C(c2ccccc2)C1 (stereo not shown) |  |  | 160 to 163.5
N/C(=N\S(=O)(=O)c1ccc(F)cc1)C1=NN(c2ccc(Cl)cc2Cl)C(c2ccccc2)C1 (stereo not shown) [Compound 6, N-[(4-fluorophenyl)sulfonyl]-1-(2,4-dichlorophenyl)-5-phenyl-4,5-dihydro-(1H)-pyrazole-3-carboxamidine] |  |  | 167 to 169.5
O=C(NN1CCCCC1)C1=NN(c2ccc(Cl)cc2)C(c2ccccc2)C1 (stereo not shown) [Compound 1, N-(piperidin-1-yl)-1-(4-chlorophenyl)-5-phenyl-4,5-dihydro-(1H)-pyrazole-3-carboxamide] |  |  | 189 to 192
N/C(=N\S(=O)(=O)c1ccc(F)cc1)C1=NN(c2ccc(Cl)cc2)C(c2ccccc2)C1 (stereo not shown) [Compound 5, N-[(4-fluorophenyl)sulfonyl]-1-(4-chlorophenyl)-5-phenyl-4,5-dihydro-(1H)-pyrazole-3-carboxamidine] |  |  | 200 to 203.5
CN/C(=N\S(=O)(=O)N1CCOCC1)C1=NN(c2ccc(Cl)cc2Cl)C(c2ccccc2)C1 (stereo not shown) [Compound 11, N-[(Morpholin-4-yl)sulfonyl]-N′-methyl-1-(2,4-dichlorophenyl)-5-phenyl-4,5-dihydro-(1H)-pyrazole-3-carboxamidine] |  |  | 161 to 165
CNC(=NS(=O)(=O)N1CCCCC1)C1=NN(c2ccc(Cl)cc2)C(c2ccccc2)C1 (stereo not shown) [Compound 10, N-[(piperidin-1-yl)sulfonyl]-N′-methyl-1-(4-chlorophenyl)-5-phenyl-4,5-dihydro-(1H)-pyrazole-3-carboxamidine] | 79 | 79.4 | 
